Several values for one entry are separate records, joined by “and”; a condition that tells them apart may be missing. Equal values may be shown once.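 How tested: cells in 96-well plates exposed to compound for 48 hours at five concentrations. GI50: concentration for 50% inhibition of growth. TGI marks complete inhibition of growth.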
How the values were obtained:
Assay in all cases: NCI anticancer screen, dose series, 48 h
NCI-H23 lung = test system: NCI-H23 lung
786-0 renal = test system: 786-0 renal
RXF 393 renal = test system: RXF 393 renal
LOX IMVI melanoma = test system: LOX IMVI melanoma
SF-539 CNS = test system: SF-539 CNS
SNB-75 CNS = test system: SNB-75 CNS
OVCAR-4 ovarian = test system: OVCAR-4 ovarian
BT-549 breast = test system: BT-549 breast
DU-145 prostate = test system: DU-145 prostate
MALME-3M melanoma = test system: MALME-3M melanoma

SMILES	GI50 (NCI-H23 lung)	TGI (NCI-H23 lung)	GI50 (786-0 renal)	TGI (786-0 renal)	GI50 (RXF 393 renal) [µM]	TGI (RXF 393 renal) [µM]	GI50 (LOX IMVI melanoma)	TGI (LOX IMVI melanoma)	GI50 (SF-539 CNS)	TGI (SF-539 CNS)	GI50 (SNB-75 CNS)	TGI (SNB-75 CNS)	GI50 (OVCAR-4 ovarian)	TGI (OVCAR-4 ovarian)	GI50 (BT-549 breast)	TGI (BT-549 breast)	GI50 (DU-145 prostate) [µM]	TGI (DU-145 prostate)	TGI (MALME-3M melanoma) [µM]	GI50 (MALME-3M melanoma) [µM]
CC(C)=O.O=C([O-])C(F)(F)F.O=C([O-])C(F)(F)F.O=C([O-])C(F)(F)F.O=C([O-])C(F)(F)F.[Rh+2].[Rh+2]	46.7 µM	> 100 µM	71.5 µM	> 100 µM	> 100	> 100	53.3 µM	> 100 µM	> 100 µM	> 100 µM	58.6 µM	> 100 µM	69.7 µM	> 100 µM						
O=c1cc(-c2ccccc2)oc2ccc(OC/C(=N/O)c3ccc(F)cc3)cc12	5.43 µM	38.4 µM	8.97 µM	> 50 µM	9.99	26.1	5.46 µM	12.3 µM	1.92 µM	4.06 µM	4.64 µM	> 50 µM	25.3 µM	> 50 µM	1.01 µM	2.67 µM	3.1	15.6 µM		
O=C1CSC(c2ccc(-c3nc4ccccc4[nH]3)cc2)=N1	47.4 µM	> 50 µM	42.5 µM	> 50 µM			15.7 µM	> 50 µM	12.2 µM	42.1 µM					42.4 µM	> 50 µM	31.4	> 50 µM		
CCO/C(CCn1[nH]c(=O)c(Cl)c(Cl)c1=O)=N\NC(=O)C(=O)NN		> 100 µM		> 100 µM		> 100		> 100 µM		> 100 µM		> 100 µM		> 100 µM					> 100	
COc1cccc(OC(=O)c2ccc(C(F)(F)F)nc2Nc2c(C)cccc2Cl)c1	1.84 µM	19 µM	27.7 µM	> 100 µM	25	55.7	20 µM	64.8 µM	23.4 µM	70.4 µM	16.4 µM	40.9 µM	13.8 µM	30.9 µM	30.4 µM	> 100 µM	32.1	> 100 µM		
O=S(=O)(c1ccccc1)c1nccs1		> 100 µM		> 100 µM				> 100 µM		> 100 µM		> 100 µM		> 100 µM						
CC(=O)O[C@@]12CO[C@@H]1C[C@H](O)[C@@]1(C)C(=O)[C@H](O)C3=C(C)[C@@H](OC(=O)[C@H](O)[C@@H](NC(=O)OC(C)(C)C)c4ccccc4)C[C@@](O)([C@@H](OC(=O)c4ccccc4)C12)C3(C)C (stereo partly specified)	< 0.005 µM	50 µM	0.00549 µM	50 µM				79 µM	< 0.005 µM	19.3 µM and 22.9 µM			12.6 µM	> 100 µM		0.0338 µM	< 0.005		29.6	11.3
O=C1Nc2ccccc2/C1=C\c1cccc(/C=C2/C(=O)Nc3ccccc32)n1	0.855 µM	2.43 µM	1.08 µM	2.49 µM	0.248	0.61	0.19 µM	0.44 µM	0.966 µM	2.23 µM	1.32 µM	3.46 µM	0.718 µM	1.99 µM			0.881	2.26 µM	1.08	0.3
S=c1nc(C(c2ccccc2)c2ccccc2)[nH][nH]1		> 100 µM		> 100 µM		> 100		> 100 µM		> 100 µM									> 100	
O=C(N/C(=C\c1c(O)ccc2ccccc12)c1nc2ccccc2[nH]1)c1ccccc1		> 100 µM		> 100 µM		47.7		> 100 µM		> 100 µM		45.6 µM		> 100 µM					> 100	
COc1cc(OC)cc(-c2nc3sccn3c2/C=N/N=C(N)N)c1	7.9 µM	15.6 µM	7.71 µM	14.4 µM	7.96	16.7	6.49 µM	12.8 µM	8.26 µM	15.7 µM					6.87 µM	14 µM				
O=C(Nc1cc(Cl)ccc1Cl)c1cc2cccc(Br)c2oc1=O		> 100 µM		> 100 µM		> 100		> 100 µM		> 100 µM		> 100 µM							> 100	
O=c1/c(=C/c2c(O)ccc3ccccc23)sc2nc3ccccc3n12		> 100 µM		> 100 µM		> 100		> 100 µM		> 100 µM		> 100 µM		> 100 µM					> 100	
CC1(C)OC2CC3COC(=O)C3CC2O1 (stereo unspecified)		> 100 µM		> 100 µM				> 100 µM		> 100 µM		> 100 µM		> 100 µM					> 100	
CC(N)Cc1ccc(Cl)cc1 (stereo unspecified)		> 100 µM		> 100 µM		> 100		> 100 µM		> 100 µM		> 100 µM		> 100 µM					> 100	
CSC(=Nc1ccccc1Cl)NC(=O)c1ccc(Br)cc1		> 100 µM		86.3 µM		> 100		> 100 µM		> 100 µM				38.4 µM					> 100	
COc1cccc2c1C(=O)c1c(O)c3c(c(O)c1C2=O)C[C@@](O)(C(C)=O)C[C@@H]3OC1CC([N+]([O-])(Cc2ccccc2)Cc2ccccc2)C(O)C(C)O1 (stereo partly specified)		2.58 µM		2.86 µM		2.57		2.41 µM		2.62 µM		4.25 µM		4.17 µM						
Cc1cc(C)nc(NS(=O)(=O)c2ccc(Nc3c4ccccc4nc4c(C(=O)Nc5ccc(S(=O)(=O)Nc6cc(C)on6)cc5)ccc(Cl)c34)cc2)n1		59.7 µM		34.1 µM		32.7		> 100 µM		53 µM		84.1 µM		65.3 µM					86.5	
O=C1C=C2C=CC3CC2(O1)C1CCCCN31 (stereo unspecified)	19.9 µM and 15 µM and 31.7 µM	56.7 µM and 43.5 µM and > 100 µM	16.3 µM and 15.5 µM and 45.6 µM	41.3 µM and 49.8 µM and > 100 µM			17.7 µM and 18 µM and 53.3 µM	44.4 µM and 42.8 µM and > 100 µM	12.7 µM and 27 µM and 23.2 µM	35.8 µM and > 100 µM and 75.4 µM	24.2 µM and 14.6 µM and 31.7 µM	> 100 µM and 62.3 µM and 95.8 µM	25.8 µM and 22.5 µM and 65 µM	> 100 µM and 92.1 µM	13.8 µM and 10.8 µM and 37 µM	51.3 µM and 30.3 µM and > 100 µM		50.1 µM and 36.1 µM and > 100 µM	44.4	
